≈ marks a conversion by molar mass, not a printed value.
Key:
[1] = test system: E. coli 25922; test: MIC by microdilution in cation-adjusted Mueller-Hinton Broth (NCCLS); format: cell-based; settings: for MIC: Escherichia coli, 25922, pH 7.2-7.3; for MIC for E. coli 25922: pH 7.2-7.3
Protocol: (§1) These assays have been performed following the description given in “Methods for dilution Antimicrobial Susceptibility Tests for Bacteria that Grow Aerobically, 4th ed.; Approved standard: NCCLS Document M7-A4; National Committee for Clinical Laboratory Standards: Villanova, Pa., USA, 1997”. Minimal inhibitory concentrations (MICs; mg/l) were determined in cation-adjusted Mueller-Hinton Broth (BBL) by a microdilution method following NCCLS guidelines (National Committee for Clinical Laboratory Standards. Methods for Dilution Antimicrobial Susceptibility). The pH of the test medium was 7.2-7.3. All Example compounds were tested against several Gram positive and Gram negative bacteria such as S. aureus, E. faecalis, S. pneumoniae, M catarrhalis, A. baumanii, E. coli or P. aeruginosa.

[2] = test system: P. aeruginosa 27853; test: as above; format: cell-based; settings: for MIC: Pseudomonas aeruginosa, 27853, pH 7.2-7.3; for MIC for P. aeruginosa 27853: pH 7.2-7.3
Protocol: as §1

| SMILES | MIC [1] [µg/mL] | MIC [2] [µg/mL] | MIC for E. coli 25922 [1] [µg/mL] | MIC for P. aeruginosa 27853 [2] [µg/mL] |
| --- | --- | --- | --- | --- |
| COc1ccc2ccc(=O)n(CC(N)[C@H]3CC[C@H](NCc4ccc5c(n4)NC(=O)CO5)CC3)c2c1 (mixture of isomers) [Ref. Ex. 2, rac-6-(trans-{4-[1-amino-2-(7-methoxy-2-oxo-2H-quinolin-1-yl)-ethyl]-cyclohexylamino}-methyl)-4H-pyrido[3,2-b][1,4]oxazin-3-one] | 0.5 (≈ 1.05 µM) | 0.5 (≈ 1.05 µM) |  |  |
| COc1ccc2ccc(=O)n(C[C@H](N)[C@@H]3CC[C@@H](NCc4ccc5c(n4)NC(=O)CO5)CO3)c2c1 [Example 3, 6-({(3R,6S)-6-[(1S)-1-amino-2-(7-methoxy-2-oxo-2H-quinolin-1-yl)-ethyl]-tetrahydro-pyran-3-ylamino}-methyl)-4H-pyrido[3,2-b][1,4]oxazin-3-one] | 0.25 (≈ 0.521 µM) | 4 (≈ 8.34 µM) |  |  |
| COc1ccc2ccc(=O)n(C[C@H](N)[C@@H]3CC[C@@H](NCc4ccc5c(n4)NC(=O)CS5)CO3)c2c1 [Example 5] |  |  | 0.125 | 2 |
| COc1cnc2ccc(=O)n(C[C@H](N)[C@@H]3CC[C@@H](NCc4ccc5c(n4)NC(=O)CS5)CO3)c2c1 [Example 6, 6-({(3R,6S)-6-[(1S)-1-amino-2-(7-methoxy-2-oxo-2H-[1,5]naphthyridin-1-yl)-ethyl]-tetrahydro-pyran-3-ylamino}-methyl)-4H-pyrido[3,2-b][1,4]thiazin-3-one] | 0.25 (≈ 0.503 µM) | 2 (≈ 4.03 µM) |  |  |
| COc1cnc2ccc(=O)n(C[C@H](N)[C@@H]3CC[C@@H](NCc4ccc5c(n4)NC(=O)CO5)CO3)c2c1 [Example 7, 6-({(3R,6S)-6-[(1S)-1-amino-2-(7-methoxy-2-oxo-2H-[1,5]naphthyridin-1-yl)-ethyl]-tetrahydro-pyran-3-ylamino}-methyl)-4H-pyrido[3,2-b][1,4]oxazin-3-one] | 1 (≈ 2.08 µM) | 4 (≈ 8.32 µM) |  |  |
| COc1cnc2ccc(=O)n(C[C@H](N)[C@@H]3CC[C@@H](NCc4ccc5c(c4)NC(=O)CO5)CO3)c2c1 [Example 8, 6-({(3R,6S)-6-[(1S)-1-amino-2-(7-methoxy-2-oxo-2H-[1,5]naphthyridin-1-yl)-ethyl]-tetrahydro-pyran-3-ylamino}-methyl)-4H-benzo[1,4]oxazin-3-one] | 1 (≈ 2.09 µM) | 4 (≈ 8.34 µM) |  |  |
| COc1ccc2ncc(=O)n(C[C@H](N)[C@@H]3CC[C@@H](NCc4ccc5c(n4)NC(=O)CS5)CO3)c2c1 [Example 9, 6-({(3R,6S)-6-[(1S)-1-amino-2-(7-methoxy-2-oxo-2H-quinoxalin-1-yl)-ethyl]-tetrahydro-pyran-3-ylamino}-methyl)-4H-pyrido[3,2-b][1,4]thiazin-3-one] | 0.25 (≈ 0.503 µM) | 16 (≈ 32.2 µM) |  |  |
| COc1ccc2ccc(=O)n(C[C@H](N)[C@@H]3CC[C@@H](NCc4ccc5c(n4)NC(=O)CO5)CO3)c2n1 [Example 11, 6-({(3R,6S)-6-[(1S)-1-amino-2-(7-methoxy-2-oxo-2H-[1,8]naphthyridin-1-yl)-ethyl]-tetrahydro-pyran-3-ylamino}-methyl)-4H-pyrido[3,2-b][1,4]oxazin-3-one] | 0.5 (≈ 1.04 µM) | 8 (≈ 16.6 µM) |  |  |
| COc1ccc2ccc(=O)n(C[C@H](N)[C@@H]3CC[C@@H](NCc4cc5c(cn4)OCCO5)CO3)c2n1 [Example 12, 1-((1S)-2-amino-2-{(2S,5R)-5-[(2,3-dihydro-[1,4]dioxino[2,3-c]pyridin-7-ylmethyl)-amino]-tetrahydro-pyran-2-yl}-ethyl)-7-methoxy-1H-[1,8]naphthyridin-2-one] |  |  | 0.063 | 0.5 |
| COc1ccc2ccc(=O)n(CC(N)C3CCC(NC/C=C/c4cc(F)ccc4F)CC3)c2c1 [Example 13, 1-((1R)-2-amino-2-{4-[(E)-3-(2,5-difluoro-phenyl)-allylamino]-cyclohexyl}-ethyl)-7-methoxy-1H-quinolin-2-one] |  |  | 0.25 | 1 |

More lines, now with the values ahead:

| MIC [1] [µg/mL] | MIC [2] [µg/mL] | MIC for E. coli 25922 [1] [µg/mL] | MIC for P. aeruginosa 27853 [2] [µg/mL] | SMILES |
| --- | --- | --- | --- | --- |
| 0.25 (≈ 0.506 µM) | 0.5 (≈ 1.01 µM) |  |  | COc1ccc2ccc(=O)n(CC(N)[C@H]3CC[C@H](NCc4ccc5c(n4)NC(=O)CS5)CC3)c2c1 (mixture of isomers) [Ref. Ex. 1, rac-6-(trans-{4-[1-amino-2-(7-methoxy-2-oxo-2H-quinolin-1-yl)-ethyl]-cyclohexylamino}-methyl)-4H-pyrido[3,2-b][1,4]thiazin-3-one] |
| 0.063 (≈ 0.128 µM) | 0.25 (≈ 0.506 µM) |  |  | COc1ccc2ccc(=O)n(C[C@H](N)[C@H]3CC[C@H](NCc4ccc5c(n4)NC(=O)CS5)CC3)c2c1 [Example 1, 6-(trans-{4-[(1R)-1-amino-2-(7-methoxy-2-oxo-2H-quinolin-1-yl)-ethyl]-cyclohexylamino}-methyl)-4H-pyrido[3,2-b][1,4]thiazin-3-one] |
| 0.25 (≈ 0.523 µM) | 0.25 (≈ 0.523 µM) |  |  | COc1ccc2ccc(=O)n(C[C@H](N)[C@H]3CC[C@H](NCc4ccc5c(n4)NC(=O)CO5)CC3)c2c1 [Example 2, 6-(trans-{4-[(1R)-1-amino-2-(7-methoxy-2-oxo-2H-quinolin-1-yl)-ethyl]-cyclohexylamino}-methyl)-4H-pyrido[3,2-b][1,4]oxazin-3-one] |
| 0.063 (≈ 0.134 µM) | 2 (≈ 4.26 µM) |  |  | COc1ccc2ccc(=O)n(C[C@H](N)[C@@H]3CC[C@@H](NC/C=C/c4cc(F)ccc4F)CO3)c2c1 [Example 4, 1-((2S)-2-amino-2-{(2S,5R)-5-[(E)-3-(2,5-difluoro-phenyl)-allylamino]-tetrahydro-pyran-2-yl}-ethyl)-7-methoxy-1H-quinolin-2-one] |
| ≤ 0.031 | 0.5 (≈ 1.01 µM) |  |  | COc1ccc2ccc(=O)n(C[C@H](N)[C@@H]3CC[C@@H](NCc4ccc5c(n4)NC(=O)CS5)CO3)c2n1 [Example 10, 6-({(3R,6S)-6-[(1S)-1-amino-2-(7-methoxy-2-oxo-2H-[1,8]naphthyridin-1-yl)-ethyl]-tetrahydro-pyran-3-ylamino}-methyl)-4H-pyrido[3,2-b][1,4]thiazin-3-one] |
